In patent US20090075309A1, “Bisdeoxycoelenterazine derivatives, methods of use, and BRET2 systems” (priority 2007, published 2009):
Read-outs that look alike come from different tables or passages of the source.

Molecular target: HT1080 cells stably expressing the GFP2-RLuc8 fusion protein (Renilla reniformis, UniProt P27652, A143M/A55T/C124A/K136R/M185V/M253L/S130A/S287L)
Settings: for intensity of the light signal among the four derivatives: FIG. 3A; for signal half-life (time required for the initial light flux to fall to its half-value): HT1080 GFP2-RLuc8 cells, 60 μM derivatives
Procedure: The kinetics of the bioluminescent reactions was evaluated by exposing the derivatives to HT1080 cells stably expressing the GFP2-RLuc8 fusion protein and detecting generated light over the course of one hour using cooled charge coupled device camera (FIG. 2).
Human fibrosracoma cell line HT1080 stably expressing GFP2-RLuc8 fusion protein was grown in Dulbecco's modified Eagle high glucose medium (DMEM, Invitrogen, Carlsbad, Calif.) supplemented with 10% fetal bovine serum (FBS), 1% penicillin-streptomycin and 500 μg/mL Zeocin™ (Invitrogen). One day before the luminescence study, 10 000 cells were plated in the 96 well plates (Corning Incorporated, Lowell, Mass.). After the removal of the medium 100 μL of the 5 μM solution of BDC in PBS and 60 μM solution of BDC derivatives in DMSO were added and luminescence measured every five minutes during one hour using an open filter setting. The acquisition time was 10 sec. Images were acquired using a cooled charged-coupled device (CCD) camera IVIS 50 (Caliper Life Sciences, Hopkinton, Mass.) and analyzed using Living Image® software version 2.50.1 (Caliper Life Sciences, Hopkinton, Mass.). Region of interest were drawn, and maximum radiance used as the measure of luminescence. The measurements were done in triplicates.

HT1080 cells stably expressing the GFP2-RLuc8 fusion protein, sequence (P27652 whole entry A55T/C124A/S130A/K136R/A143M/M185V/M253L/S287L, the tested form may be a part): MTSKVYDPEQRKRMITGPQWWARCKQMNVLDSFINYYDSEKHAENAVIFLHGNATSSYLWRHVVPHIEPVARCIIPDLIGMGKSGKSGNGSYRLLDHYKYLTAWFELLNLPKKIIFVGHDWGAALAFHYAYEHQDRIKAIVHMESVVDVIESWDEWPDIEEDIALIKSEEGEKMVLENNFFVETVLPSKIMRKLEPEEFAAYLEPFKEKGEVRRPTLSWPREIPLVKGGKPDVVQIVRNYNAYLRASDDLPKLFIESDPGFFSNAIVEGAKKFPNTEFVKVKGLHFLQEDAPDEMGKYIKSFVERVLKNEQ

Compound | intensity of the light signal among the four derivatives | signal half-life (time required for the initial light flux to fall to its half-value) | rate of the bioluminescent reaction / light signal decay (in words) (over one hour) | signal half-life (time required for the initial light flux to fall to its half-value) (5 μM BDC) | also measured
pivaloyloxymethyl-bisdeoxycoelenterazine [compound 10] | lowest | over one | slower bioluminescent reactions compared to their ester counterparts | – | observable signal 24 hours after exposure to the enzyme (24 hours, FIG. 3B): the only observable signal 24 hours after exposure to the enzyme came from it; light signal as share of the maximum intensity (lowest value reached) (over one hour): ≥ 88%; rate of the bioluminescent reaction / light signal decay (in words) (over one hour, listed as pivaloyloxymethyl-BDC): slowest bioluminescent reaction
O=c1c(Cc2ccccc2)nc2c(Cc3ccccc3)[nH]c(-c3ccccc3)cn1-2 [BDC, bisdeoxycoelenterazine] | – | – | – | 5 min | loss of initial light emission (at the 15 minute time point): ~75%
acetoxymethyl-bisdeoxycoelenterazine [compound 9] | – | over one | slower bioluminescent reactions compared to their ester counterparts | – | delay of the emergence of the maximum light signal compared to the parent BDC: 5 min; rate of the bioluminescent reaction / light signal decay (in words) (over one hour, listed as acetoxymethyl-BDC): slowly decayed with time
acetyl-bisdeoxycoelenterazine [compound 7] | highest light signal | – | fast light signal decay, similar to BDC | – | –
CC(C)(C)OC(=O)Oc1c(Cc2ccccc2)nc2c(Cc3ccccc3)nc(-c3ccccc3)cn12 [compound 8, O-Boc-bisdeoxycoelenterazine] | – | – | remained fairly stable over one hour | ~50 min | time of peak light emission after exposure to the RLUC8 expressing cells: 15 min
